Laboratory results as given in US10618918B2, “Substituted boronic acids as antimicrobials” (priority 2015, dated 2020).

Key:
EC1010 CMY-6 = test: Aztreonam potentiation (MPC@4), strain EC1010 CMY-6; settings: minimum BLI concentration inhibiting growth with aztreonam 4 μg/mL; tested up to 40 μg/mL
AB1054 OXA-23 = test: Meropenem potentiation (MPC@8), strain AB1054 OXA-23; format: cell-based, Acinetobacter baumannii; settings: minimum BLI concentration inhibiting growth with meropenem 8 μg/mL; tested up to 20 μg/mL
ECL1002 = test: Aztreonam potentiation (MPC@4), strain ECL1002; settings: minimum BLI concentration inhibiting growth with aztreonam 4 μg/mL; tested up to 40 μg/mL
KP1005 CTX-M-14 = test: Tigemonam potentiation (MPC@4), strain KP1005 CTX-M-14; settings: minimum BLI concentration inhibiting growth with tigemonam 4 μg/mL; tested up to 40 μg/mL
KP1086 OXA-48 = test: Biapenem potentiation (MPC@1), strain KP1086 OXA-48; format: cell-based; settings: minimum BLI concentration inhibiting growth with biapenem 1 μg/mL; tested up to 40 μg/mL
Experimental: (§1) Biapenem was present in the test medium at 1 μg/mL. […] Table 3 summarizes the BLI potency of biapenem potentiation (MPC@1) for two strains overexpressing class A (KPC) and class D (OXA-48) carbapenemases. Biapenem MIC for each strain is also shown.

KP1004 KPC-2 [1] = test: Biapenem potentiation (MPC@1), strain KP1004 KPC-2; format: cell-based; settings: minimum BLI concentration inhibiting growth with biapenem 1 μg/mL; tested up to 40 μg/mL
Experimental: as §1

ec302 TEM-10 = test: Aztreonam potentiation (MPC@4), strain ec302 TEM-10; settings: minimum BLI concentration inhibiting growth with aztreonam 4 μg/mL; tested up to 40 μg/mL
KP1010 SHV-12 = test: Aztreonam potentiation (MPC@4), strain KP1010 SHV-12; settings: minimum BLI concentration inhibiting growth with aztreonam 4 μg/mL; tested up to 40 μg/mL
ec308 SHV-5 = test: Aztreonam potentiation (MPC@4), strain ec308 SHV-5; settings: minimum BLI concentration inhibiting growth with aztreonam 4 μg/mL; tested up to 40 μg/mL
AB1053 OXA-72 = test: Meropenem potentiation (MPC@8), strain AB1053 OXA-72; format: cell-based, Acinetobacter baumannii; settings: minimum BLI concentration inhibiting growth with meropenem 8 μg/mL; tested up to 20 μg/mL
KP1009 CTX-M-15 = test: Aztreonam potentiation (MPC@4), strain KP1009 CTX-M-15; settings: minimum BLI concentration inhibiting growth with aztreonam 4 μg/mL; tested up to 40 μg/mL
[2] = target: purified class A, C and D enzymes (β-lactamases) (Klebsiella pneumoniae, UniProt Q9F663); test: biochemical; format: biochemical; settings: purified KPC-2; nitrocefin (NCF) as reporter substrate
[3] = target: T1, purified class A, C and D enzymes (β-lactamases) (Acinetobacter baumannii, UniProt Q9L4P2); test: biochemical; format: biochemical; settings: purified OXA-23; nitrocefin (NCF) as reporter substrate
T1 construct: rows headed: Ki (OXA-23, NCF), uM; other: purified OXA-23; nitrocefin (NCF) as reporter substrate

[4] = target: T2, purified class A, C and D enzymes (β-lactamases) (Pseudomonas aeruginosa, UniProt P24735); test: biochemical; format: biochemical
T2 construct: rows headed: Ki (Pa-AmpC, NCF), uM; other: purified Pa-AmpC; nitrocefin (NCF) as reporter substrate

[5] = target: purified class A, C and D enzymes (β-lactamases) (Escherichia coli, UniProt Q9L5C7); test: biochemical; format: biochemical; settings: purified CTX-M-14; nitrocefin (NCF) as reporter substrate
[6] = target: purified class A, C and D enzymes (β-lactamases) (Enterobacter cloacae, UniProt P05364); test: biochemical; format: biochemical
[7] = target: purified class A, C and D enzymes (β-lactamases) (Klebsiella pneumoniae, UniProt Q6XEC0); test: biochemical; format: biochemical; settings: purified OXA-48; nitrocefin (NCF) as reporter substrate
KP1004 KPC-2 [8] = test: Aztreonam potentiation (MPC@4), strain KP1004 KPC-2; settings: minimum BLI concentration inhibiting growth with aztreonam 4 μg/mL; tested up to 40 μg/mL

T2 sequence (P24735 whole entry): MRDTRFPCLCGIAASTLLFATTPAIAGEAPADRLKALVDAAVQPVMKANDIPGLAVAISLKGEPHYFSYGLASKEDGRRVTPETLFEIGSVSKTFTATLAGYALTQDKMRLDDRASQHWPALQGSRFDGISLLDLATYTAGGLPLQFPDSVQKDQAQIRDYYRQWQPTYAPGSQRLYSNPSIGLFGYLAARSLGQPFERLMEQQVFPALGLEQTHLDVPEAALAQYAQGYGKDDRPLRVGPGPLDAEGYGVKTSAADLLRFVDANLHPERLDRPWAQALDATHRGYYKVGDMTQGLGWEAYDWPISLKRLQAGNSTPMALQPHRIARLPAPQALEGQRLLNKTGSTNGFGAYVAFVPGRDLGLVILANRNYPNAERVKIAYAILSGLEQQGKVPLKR
Sequence of purified class A, C and D enzymes (β-lactamases) (Escherichia coli, UniProt Q9L5C7) (Q9L5C7 entry or part of it): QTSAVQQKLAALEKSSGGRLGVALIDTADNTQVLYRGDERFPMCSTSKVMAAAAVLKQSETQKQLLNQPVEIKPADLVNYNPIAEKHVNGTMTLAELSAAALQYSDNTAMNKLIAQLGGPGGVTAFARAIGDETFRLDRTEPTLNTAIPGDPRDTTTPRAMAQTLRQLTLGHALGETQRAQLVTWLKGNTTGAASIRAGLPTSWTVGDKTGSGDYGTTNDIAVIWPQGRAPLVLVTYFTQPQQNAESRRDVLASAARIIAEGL
Sequence of purified class A, C and D enzymes (β-lactamases) (Enterobacter cloacae, UniProt P05364) (P05364 21-381): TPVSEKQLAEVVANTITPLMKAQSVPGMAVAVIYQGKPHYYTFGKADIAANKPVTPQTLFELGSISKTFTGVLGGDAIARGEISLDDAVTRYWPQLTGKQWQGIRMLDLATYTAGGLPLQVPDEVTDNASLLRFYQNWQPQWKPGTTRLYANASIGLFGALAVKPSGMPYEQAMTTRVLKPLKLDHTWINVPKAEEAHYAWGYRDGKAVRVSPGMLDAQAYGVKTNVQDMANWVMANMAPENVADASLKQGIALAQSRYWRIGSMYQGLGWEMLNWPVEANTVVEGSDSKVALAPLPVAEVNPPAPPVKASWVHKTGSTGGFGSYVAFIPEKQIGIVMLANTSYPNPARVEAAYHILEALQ
T1 sequence (Q9L4P2 whole entry): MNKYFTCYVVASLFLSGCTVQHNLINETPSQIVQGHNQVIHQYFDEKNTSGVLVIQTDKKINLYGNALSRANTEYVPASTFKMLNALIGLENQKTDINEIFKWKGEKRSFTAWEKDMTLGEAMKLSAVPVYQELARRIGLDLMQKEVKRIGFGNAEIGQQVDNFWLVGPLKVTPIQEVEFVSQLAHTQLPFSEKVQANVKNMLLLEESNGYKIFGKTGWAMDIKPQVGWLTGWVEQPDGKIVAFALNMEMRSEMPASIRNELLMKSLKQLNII

| SMILES | AZT MPC4 CMY-6 EC1010 (EC1010 CMY-6) | MPM MPC8 AB1054 OXA-23 (AB1054 OXA-23) | AZT MPC4 ECL1002 (ECL1002) | TIG MPC4 CTX-M-14 KP1005 (KP1005 CTX-M-14) | BPM MPC1 OXA-48 KP1086 (KP1086 OXA-48) | BPM MPC1 KP1004 KPC-2 (KP1004 KPC-2 [1]) | AZT MPC4 TEM-10 ec302 (ec302 TEM-10) | AZT MPC4 SHV-12 KP1010 (KP1010 SHV-12) | AZT MPC4 SHV-5 ec308 (ec308 SHV-5) | MPM MPC8 AB1053 OXA-72 (AB1053 OXA-72) | AZT MPC4 CTX-M-15 KP1009 (KP1009 CTX-M-15) | Ki (KPC-2, NCF), uM [2] | Ki [3] | Ki [4] | Ki (CTX-M-14, NCF), uM [5] | Ki (P99, NCF), uM [6] | Ki (OXA-48, NCF), uM [7] | AZT MPC4 KPC-2 KP1004 (KP1004 KPC-2 [8]) |
| --- | --- | --- | --- | --- | --- | --- | --- | --- | --- | --- | --- | --- | --- | --- | --- | --- | --- | --- |
| O=C([O-])c1c(C(F)F)ccc2c1O[B-](O)(O)CC2.[Na+].[Na+] [Compound 50, Disodium; 8-(difluoromethyl)-4,4-dihydroxy-5-oxa-4-boranuidabicyclo[4.4.0]deca-1(6),7,9-triene-7-carboxylate] | X (X = MPC@4 ≤ 5 μg/mL) | Y (Y = 5 μg/mL < MPC@1 ≤ 20 μg/mL) | X (X = MPC@4 ≤ 5 μg/mL) | X (X = MPC@4 ≤ 5 μg/mL) | X (X = MPC@1 ≤ 5 μg/mL) | X (X = MPC@1 ≤ 5 μg/mL) | X (X = MPC@4 ≤ 5 μg/mL) | X (X = MPC@4 ≤ 5 μg/mL) | X (X = MPC@4 ≤ 5 μg/mL) | Y (Y = 5 μg/mL < MPC@1 ≤ 20 μg/mL) | X (X = MPC@4 ≤ 5 μg/mL) | X (X = Ki ≤ 0.1 μM) | < 0.1 µM | < 0.1 µM | X (X = Ki ≤ 0.1 μM) | X (key: X = Ki ≤ 0.1 μM; Y = 0.1 μM < Ki ≤ 1 μM; Z = Ki > 1 μM) | X (X = Ki ≤ 0.1 μM) | X (X = MPC@4 ≤ 5 μg/mL) |
| [2H]C1([2H])Cc2ccc(OC)c(C(=O)[O-])c2O[B-]1(O)O.[Na+].[Na+] [Compound 60, Disodium; 3,3-dideuterio-4,4-dihydroxy-8-methoxy-5-oxa-4-boranuidabicyclo[4.4.0]deca-1(10),6,8-triene-7-carboxylate] | X (X = MPC@4 ≤ 5 μg/mL) | X (X = MPC@1 ≤ 5 μg/mL) | X (X = MPC@4 ≤ 5 μg/mL) | X (X = MPC@4 ≤ 5 μg/mL) | X (X = MPC@1 ≤ 5 μg/mL) | X (X = MPC@1 ≤ 5 μg/mL) | X (X = MPC@4 ≤ 5 μg/mL) | X (X = MPC@4 ≤ 5 μg/mL) | X (X = MPC@4 ≤ 5 μg/mL) | X (X = MPC@1 ≤ 5 μg/mL) | X (X = MPC@4 ≤ 5 μg/mL) | X (X = Ki ≤ 0.1 μM) | < 0.1 µM | < 0.1 µM | X (X = Ki ≤ 0.1 μM) | X (key: X = Ki ≤ 0.1 μM; Y = 0.1 μM < Ki ≤ 1 μM; Z = Ki > 1 μM) | X (X = Ki ≤ 0.1 μM) | X (X = MPC@4 ≤ 5 μg/mL) |
